# Source: patent publication US7563905B2, “Triazole derivatives and method of using the same to treat HIV infections” (Wyeth, priority 2004, dated 2009)
# Biological target: T1, HIV Reverse transcriptase (RT) 66/p51 (Human immunodeficiency virus type 1 group M subtype B, UniProt P04585)
# T1 construct: HIV Reverse transcriptase (RT) 66/p51; purchased Worthington
# Experiment: RNA dependent DNA polymerase (RDDP) activity of HIV RT, polyrA-oligodT12-18 / 33P TTP incorporation filter assay
# Type: biochemical
row,SMILES,IC50
1,Cc1cn([C@H]2C[C@H](N=[N+]=[N-])[C@@H](CO)O2)c(=O)[nH]c1=O [AZT],< 0.2 µM

# Biological target: T2, HIV reverse transcriptase (Human immunodeficiency virus type 1 group M subtype B, UniProt P04585)
# T2 construct: HIV reverse transcriptase has an RNase H domain at the C-terminus of its p66 subunit
# Experiment: Inhibition of HIV reverse transcriptase (RNase H fluorescent probe assay), Table I
# Type: biochemical
# Text: RNase H is an enzyme responsible for the removal of RNA primers from leading and lagging strands during DNA synthesis. It is an important enzyme for the replication of bacterial, viral and human genomes. HIV reverse transcriptase has an RNase H domain at the C-terminus of its p66 subunit. […] The ability of the compounds of the present invention to inhibit RNase H, and more particularly HIV reverse transcriptase, may be determined by any means known in the art.
# Preferably, the RNase H/HIV reverse transcriptase modulatory activity of the compounds of the present invention may be determined by the methods described in copending U.S. Provisional Patent Application No. 60/436,125, filed Dec. 19, 2002 and PCT International Publication No. WO/2004/059012, filed Dec. 22, 2003 for ASSAY FOR RNase ACTIVITY of Olson et al., incorporated herein by reference in its entirety. Specifically, the modulatory activity of a triazole derivative of the present invention may be determined by hybridizing a target nucleic acid to a fluorescently labeled oligonucleotide probe complementary to the target nucleic acid and containing a fluorophor at one terminus and a quenching group at the other terminus to obtain a probe-target hybrid, wherein (i) the unhybridized probe adopts a conformation that places the fluorophon and quencher in such proximity that the quencher quenches the fluorescent signal of the fluorophon, and (ii) the formation of the probe-target hybrid causes sufficient separation of the fluorophon and quencher to reduce quenching of the fluorescent signal of the fluorophon. Next, a first and second sample containing the probe-target hybrid are prepared. The probe-target hybrid of the first sample is then contacted with an RNase H enzyme (such as HIV reverse transcriptase) in an amount sufficient to selectively cleave the target nucleic acid and thereby release the intact probe. The probe-target hybrid of the second sample is also contacted with the RNase H enzyme in an amount sufficient to selectively cleave the target nucleic acid and thereby release the intact probe in the presence of a triazole derivative of the present invention. The release of the probe in each sample may then be detected by measuring the […] in the fluorescent signal of the fluorophon as compared to the signal of the probe-target hybrid. A comparison of the rate of the decrease in the fluorescent signal of the fluorophon in the two samples is made to determine whether there is a difference in the rate of the decrease in the two samples. […] This method is also useful to identify triazole derivatives of the present invention, wherein candidate derivatives are screened for their ability to modulate RNase/HIV reverse transcriptase activity.
row,SMILES,IC50
1,"COc1ccc(CSc2nnc(-c3ccccc3)n2Cc2ccccc2)cc1 [Example 4, 4-benzyl-3-[(4-methoxybenzyl)thio]-5-phenyl-4H-1,2,4-triazole]",1 µM
2,"COc1ccc(CSc2nnc(-c3ccco3)n2Cc2ccccc2)cc1 [Example 9, 4-benzyl-3-(2-furyl)-5-[(4-methoxybenzyl)thio]-4H-1,2,4-triazole]",3.8 µM
3,"c1ccc(CSc2nnc(-c3ccco3)n2Cc2ccccc2)cc1 [Example 6, 4-benzyl-3-(benzylthio)-5-(2-furyl)-4H-1,2,4-triazole]",1.2 µM
4,"COc1ccc(CSc2nnc(-c3cccs3)n2Cc2ccccc2)cc1 [Example 13, 4-benzyl-3-[(4-methoxybenzyl)thio]-5-thien-2-yl-4H-1,2,4-triazole]",5.9 µM
5,"Clc1ccc(CSc2nnc(-c3ccccn3)n2Cc2ccccc2)cc1 [Example 17, 2-[4-benzyl-5-(4-chloro-benzylsulfanyl)-4H-1,2,4-triazol-3-yl]pyridine]",23 µM
6,"c1ccc(CSc2nnc(-c3cccs3)n2Cc2ccccc2)cc1 [Example 2, 4-benzyl-3-(benzylthio)-5-thien-2-yl-4H-1,2,4-triazole]",< 0.2 µM
7,"FC(F)(F)c1ccc(CSc2nnc(-c3ccco3)n2-c2ccccc2)cc1 [Example 12, 3-(2-furyl)-4-phenyl-5-{[4-(trifluoromethyl)benzyl]thio}-4H-1,2,4-triazole]",4.7 µM
8,"c1ccc(CSc2nnc(-c3ccccn3)n2Cc2ccccc2)cc1 [Example 7, 2-[4-benzyl-5-(benzylthio)-4H-1,2,4-triazol-3-yl]pyridine]",1.7 µM
9,"c1ccc(Cn2c(SCc3ccncc3)nnc2-c2cccs2)cc1 [Example 3, 4-{[(4-benzyl-5-thien-2-yl-4H-1,2,4-triazol-3-yl)thio}methyl}pyridine]",0.2 µM
10,"Clc1ccc(CSc2nnc(-c3cccs3)n2Cc2ccccc2)cc1 [Example 1, 4-benzyl-3-[(4-chlorobenzyl)thio]-5-thien-2-yl-4H-1,2,4-triazole]",1.3 µM
11,"COc1ccc(Cn2c(SCc3ccc(C(F)(F)F)cc3)nnc2-c2ccco2)cc1 [Example 14, 3-(2-furyl)-4(4-methoxybenzyl)-5-{[4-(trifluoromethyl)benzyl]thio}-4H-1,2,4-triazole]",6.5 µM
12,"Clc1ccc(CSc2nnc(-c3ccco3)n2Cc2ccccc2)cc1 [Example 10, 4-benzyl-3-[(4-chlorobenzyl)thio]-5-(2-furyl)-4H-1,2,4-triazole]",3.8 µM
13,"c1ccc(Cn2c(SCc3ccncc3)nnc2-c2ccccn2)cc1 [Example 8, 2-[4-benzyl-5-[(pyridine-4-ylmethyl)thio)-4H-1,2,4-triazol-3-yl]pyridine]",2.6 µM
14,"c1ccc(CSc2nnc(-c3ccccc3)n2Cc2ccccc2)cc1 [Example 5, 4-benzyl-3-(benzylthio)-5-phenyl-4H-1,2,4-triazole]",1 µM
15,"COc1ccc(Cn2c(SCc3ccccc3)nnc2-c2ccco2)cc1 [Example 18, 3-benzylsulfanyl-5-furan-2-yl-4-(4-methoxy-benzyl)-4H-1,2,4-triazole]",46 µM
16,"COc1ccc(CSc2nnc(-c3ccccn3)n2Cc2ccccc2)cc1 [Example 16, 2-[4-benzyl-5-(4-methoxy-benzylsulfanyl)-4H-1,2,4-triazol-3-yl]pyridine]",7 µM
17,"Clc1ccc(CSc2nnc(-c3ccccc3)n2Cc2ccccc2)cc1 [Example 15, 4-benzyl-3-(4-chloro-benzylsulfanyl)-5-phenyl-4H-1,2,4-triazole]",6 µM
